Results on 28 compounds are retold here after patent publication US8349844B2, “Substituted pyrazolo [1,5-A] pyrimidines as metabotropic glutamate antagonists” (Hoffmann-La Roche Inc., priority 2005, dated 2013).

A word on the melting point: it is the temperature of the solid-liquid transition. As for `NS(=O)(=O)c1cccc(-c2noc(-c3cnn4ccc(-c5ccc(C(F)(F)F)cc5)nc34)n2)c1` [Example 53, 3-{5-[5-(4-Trifluoromethyl-phenyl)-pyrazolo[1,5-a]pyrimidin-3-yl]-[1,2,4]oxadiazol-3-yl}-benzenesulfonamide], the melting point worked out at 270 °C.

In the case of `NS(=O)(=O)c1ccc(-c2noc(-c3cnn4c(C(F)(F)F)cc(-c5ccc(C(F)(F)F)c(OCC(F)(F)F)c5)nc34)n2)s1` [Example 23, 5-(5-{5-[3-(2,2,2-Trifluoro-ethoxy)-4-trifluoromethyl-phenyl]-7-trifluoromethyl-pyrazolo[1,5-a]pyrimidin-3-yl}-[1,2,4]oxadiazol-3-yl)-thiophene-2-sulfonic acid amide], the melting point is 255 °C.

Take `Nc1ncc(-c2noc(-c3cnn4c(C(F)(F)F)cc(-c5ccc(C(F)(F)F)c(Cl)c5)nc34)n2)cn1` [Example 80, 5-{5-[5-(3-Chloro-4-trifluoromethyl-phenyl)-7-trifluoromethyl-pyrazolo[1,5-a]pyrimidin-3-yl]-[1,2,4]oxadiazol-3-yl}-pyrimidin-2-ylamine]: the melting point is 279 °C.

In turn, `Cc1cc(-c2ccc(C(F)(F)F)cc2)cn2c(-c3nc(-c4ccc(S(N)(=O)=O)s4)no3)cnc12` [Example 45, 5-{5-[8-Methyl-6-(4-trifluoromethyl-phenyl)-imidazo[1,2-a]pyridin-3-yl]-[1,2,4]oxadiazol-3-yl}-thiophene-2-sulfonic acid amide] came in with a melting point of 285 °C.

In turn, `Nc1ccc(-c2noc(-c3cnn4c(C(F)(F)F)cc(-c5ccc(C(F)(F)F)c(Cl)c5)nc34)n2)cn1` [Example 73, 5-{5-[5-(3-Chloro-4-trifluoromethyl-phenyl)-7-trifluoromethyl-pyrazolo[1,5-a]pyrimidin-3-yl]-[1,2,4]oxadiazol-3-yl}-pyridin-2-ylamine] returned a melting point of 234 °C.

Compound `NS(=O)(=O)c1cccc(-c2noc(-c3cnn4c(C(F)(F)F)cc(-c5ccc(C(F)(F)F)cc5)nc34)n2)c1` [Example 2, 3-{5-[7-Trifluoromethyl-5-(4-trifluoromethyl-phenyl)-pyrazolo[1,5-a]pyrimidin-3-yl]-[1,2,4]oxadiazol-3-yl}-benzenesulfonamide] registered a melting point of 262 °C.

As to `Nc1ccc(-c2noc(-c3cnn4c(C(F)F)cc(-c5ccc(Cl)cc5)nc34)n2)cn1` [Example 63, 5-{5-[5-(4-Chloro-phenyl)-7-difluoromethyl-pyrazolo[1,5-a]pyrimidin-3-yl]-[1,2,4]oxadiazol-3-yl}-pyridin-2-ylamine], the melting point was 254 °C.

With `Nc1ccc(-c2noc(-c3cnn4c(C(F)(F)F)cc(-c5ccc(Cl)c(Cl)c5)nc34)n2)cn1` [Example 67, 5-{5-[5-(3,4-Dichloro-phenyl)-7-trifluoromethyl-pyrazolo[1,5-a]pyrimidin-3-yl]-[1,2,4]oxadiazol-3-yl}-pyridin-2-ylamine], the melting point was determined as 289 °C.

In turn, `Nc1ncc(-c2noc(-c3cnn4c(C(F)(F)F)cc(-c5ccc(F)c(F)c5)nc34)n2)cn1` [Example 78, 5-{5-[5-(3,4-Difluoro-phenyl)-7-trifluoromethyl-pyrazolo[1,5-a]pyrimidin-3-yl]-[1,2,4]oxadiazol-3-yl}-pyrimidin-2-ylamine] gave a melting point of 268 °C.

On to `CCOc1cc(-c2cc(C(F)F)n3ncc(-c4nc(-c5ccc(N)nc5)no4)c3n2)ccc1C(F)(F)F` [Example 68, 5-{5-[7-Difluoromethyl-5-(3-ethoxy-4-trifluoromethyl-phenyl)-pyrazolo[1,5-a]pyrimidin-3-yl]-[1,2,4]oxadiazol-3-yl}-pyridin-2-ylamine], for which the melting point worked out at 250 °C.

Regarding `Cc1cc(-c2ccc(Cl)cc2)nc2c(-c3nc(-c4ccc(S(N)(=O)=O)s4)no3)cnn12` [Example 32, 5-{5-[5-(4-Chloro-phenyl)-7-methyl-pyrazolo[1,5-a]pyrimidin-3-yl]-[1,2,4]oxadiazol-3-yl}-thiophene-2-sulfonic acid amide], the melting point was 253 °C.

Compound `Nc1ccc(-c2noc(-c3cnn4c(C(F)(F)F)cc(-c5ccc(F)c(F)c5)nc34)n2)cn1` [Example 76, 5-{5-[5-(3,4-Difluoro-phenyl)-7-trifluoromethyl-pyrazolo[1,5-a]pyrimidin-3-yl]-[1,2,4]oxadiazol-3-yl}-pyridin-2-ylamine] returned a melting point of 262 °C.

As to `NS(=O)(=O)c1ccc(-c2nc(-c3cnn4c(C(F)(F)F)cc(-c5ccc(C(F)(F)F)cc5)nc34)no2)cc1` [Example 14, 4-{3-[7-Trifluoromethyl-5-(4-trifluoromethyl-phenyl)-pyrazolo[1,5-a]pyrimidin-3-yl]-[1,2,4]oxadiazol-5-yl}-benzenesulfonamide], the melting point stood at 292 °C.

As to `Cc1cc(-c2ccc(C(F)(F)F)cc2)cn2c(-c3nc(-c4cccc(S(N)(=O)=O)c4)no3)cnc12` [Example 44, 3-{5-[8-Methyl-6-(4-trifluoromethyl-phenyl)-imidazo[1,2-a]pyridin-3-yl]-[1,2,4]oxadiazol-3-yl}-benzenesulfonamide], the melting point stood at 326 °C.

Compound `Nc1cc(-c2noc(-c3cnn4c(C(F)(F)F)cc(-c5ccc(C(F)(F)F)cc5)nc34)n2)ccn1` [Example 58, 4-{5-[7-Trifluoromethyl-5-(4-trifluoromethyl-phenyl)-pyrazolo[1,5-a]pyrimidin-3-yl]-[1,2,4]oxadiazol-3-yl}-pyridin-2-ylamine] yielded a melting point of 277 °C.

Take `Cc1cc(-c2cc(C(F)(F)F)n3ncc(-c4nc(-c5cccc(S(N)(=O)=O)c5)no4)c3n2)ccc1C(F)(F)F` [Example 17, 3-{5-[5-(3-Methyl-4-trifluoromethyl-phenyl)-7-trifluoromethyl-pyrazolo[1,5-a]pyrimidin-3-yl]-[1,2,4]oxadiazol-3-yl}-benzenesulfonamide]: the melting point stood at 270 °C.

For the compound `Nc1ccc(-c2noc(-c3cnc4ccc(-c5ccc(Cl)cc5)cn34)n2)cn1` [Example 57, 5-{5-[6-(4-Chloro-phenyl)-imidazo[1,2-a]pyridin-3-yl]-[1,2,4]oxadiazol-3-yl}-pyridin-2-ylamine], the melting point is 273 °C.

With `CCOc1cc(-c2cc(C(F)(F)F)n3ncc(-c4nc(-c5ccc(N)nc5)no4)c3n2)ccc1C(F)(F)F` [Example 69, 5-{5-[5-(3-Ethoxy-4-trifluoromethyl-phenyl)-7-trifluoromethyl-pyrazolo[1,5-a]pyrimidin-3-yl]-[1,2,4]oxadiazol-3-yl}-pyridin-2-ylamine], the melting point was determined as 263 °C.

The compound `Nc1ccc(-c2noc(-c3cnn4c(C(F)F)cc(-c5ccc(C(F)(F)F)c(F)c5)nc34)n2)cn1` [Example 74, 5-{5-[7-Difluoromethyl-5-(3-fluoro-4-trifluoromethyl-phenyl)-pyrazolo[1,5-a]pyrimidin-3-yl]-[1,2,4]oxadiazol-3-yl}-pyridin-2-ylamine] displayed a melting point of 242 °C.

Consider `Cc1cc(-c2cc(C(F)(F)F)n3ncc(-c4nc(-c5cnc(N)nc5)no4)c3n2)ccc1C(F)(F)F` [Example 83, 5-{5-[5-(3-Methyl-4-trifluoromethyl-phenyl)-7-trifluoromethyl-pyrazolo[1,5-a]pyrimidin-3-yl]-[1,2,4]oxadiazol-3-yl}-pyrimidin-2-ylamine], for which the melting point was 272 °C.

Turning to `Cc1cc(-c2cc(C(F)(F)F)n3ncc(-c4nc(-c5cnc(N)nc5)no4)c3n2)ccc1Cl` [Example 84, 5-{5-[5-(4-Chloro-3-methyl-phenyl)-7-trifluoromethyl-pyrazolo[1,5-a]pyrimidin-3-yl]-[1,2,4]oxadiazol-3-yl}-pyrimidin-2-ylamine], the melting point stood at 272 °C.

The compound `NS(=O)(=O)c1ccc(-c2noc(-c3cnn4c(C(F)(F)F)cc(-c5ccc(Cl)cc5)nc34)n2)cc1` [Example 12, 4-{5-[5-(4-Chloro-phenyl)-7-trifluoromethyl-pyrazolo[1,5-a]pyrimidin-3-yl]-[1,2,4]oxadiazol-3-yl}-benzenesulfonamide] displayed a melting point of 296 °C.

Consider `NS(=O)(=O)c1ccc(-c2noc(-c3cnc4c(C(F)(F)F)cc(-c5ccc(C(F)(F)F)cc5)cn34)n2)cc1` [Example 13, 4-{5-[8-Trifluoromethyl-6-(4-trifluoromethyl-phenyl)-imidazo[1,2-a]pyridin-3-yl]-[1,2,4]oxadiazol-3-yl}-benzenesulfonamide], for which the melting point was 292 °C.

`NS(=O)(=O)c1cccc(-c2noc(-c3cnn4c(C(F)F)cc(-c5ccc(Cl)cc5)nc34)n2)c1` [Example 19, 3-{5-[5-(4-Chloro-phenyl)-7-difluoromethyl-pyrazolo[1,5-a]pyrimidin-3-yl]-[1,2,4]oxadiazol-3-yl}-benzenesulfonamide] had a melting point of 231 °C.

For `NS(=O)(=O)c1ccc(-c2noc(-c3cnn4c(C(F)F)cc(-c5ccc(C(F)(F)F)cc5)nc34)n2)cc1` [Example 4, 4-{5-[7-Difluoromethyl-5-(4-trifluoromethyl-phenyl)-pyrazolo[1,5-a]pyrimidin-3-yl]-[1,2,4]oxadiazol-3-yl}-benzenesulfonamide], the melting point was found to be 283 °C.

Take `Nc1ccc(-c2noc(-c3cnn4c(C(F)F)cc(-c5ccc(C(F)(F)F)c(OCC(F)(F)F)c5)nc34)n2)cn1` [Example 71, 5-(5-{7-Difluoromethyl-5-[3-(2,2,2-trifluoro-ethoxy)-4-trifluoromethyl-phenyl]-pyrazolo[1,5-a]pyrimidin-3-yl}-[1,2,4]oxadiazol-3-yl)-pyridin-2-ylamine]: the melting point is 285 °C.

`Nc1cc(-c2noc(-c3cnc4ccc(-c5ccc(C(F)(F)F)cc5)cn34)n2)ccn1` [Example 61, 4-{5-[6-(4-Trifluoromethyl-phenyl)-imidazo[1,2-a]pyridin-3-yl]-[1,2,4]oxadiazol-3-yl}-pyridin-2-ylamine] came in with a melting point of 280 °C.

`Nc1ccc(-c2noc(-c3cnc4ccc(-c5ccc(C(F)(F)F)cc5)cn34)n2)cn1` [Example 56, 5-{5-[6-(4-Trifluoromethyl-phenyl)-imidazo[1,2-a]pyridin-3-yl]-[1,2,4]oxadiazol-3-yl}-pyridin-2-ylamine]: the melting point is 258 °C.
